Where a name gives a salt, the structure may show the parent alone.
Key:
[1] = target: T1, OFQ receptor (rat, LC132) (Rattus norvegicus, UniProt P35370); experiment: OFQ-R binding assay: [3H]-OFQ competition on membranes of 293s-OFQ-R cells; conditions: Ki from IC50 by Cheng and Prusoff, at least 6 concentrations in triplicate, determined twice, read-out: OFQ pKi (converted)
T1 construct: expressed in transfected cells; host or cells: HEK-293 cells adapted to suspension growth (293s), vector pCEP4; total membrane fraction of 293s-OFQ-R cells
T1 sequence (P35370 whole entry): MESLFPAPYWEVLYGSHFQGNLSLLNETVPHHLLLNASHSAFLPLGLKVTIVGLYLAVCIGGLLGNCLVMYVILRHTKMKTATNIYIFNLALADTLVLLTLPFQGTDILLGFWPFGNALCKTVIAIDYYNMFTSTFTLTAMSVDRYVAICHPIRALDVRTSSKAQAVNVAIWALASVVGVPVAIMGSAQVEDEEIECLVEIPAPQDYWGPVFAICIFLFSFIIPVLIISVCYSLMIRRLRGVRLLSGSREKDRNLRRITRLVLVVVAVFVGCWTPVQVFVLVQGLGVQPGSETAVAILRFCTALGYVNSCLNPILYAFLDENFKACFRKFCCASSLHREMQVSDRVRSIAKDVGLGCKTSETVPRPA
Description: Methods of OFQ-R Binding Assay
HEK-293 cells adapted to suspension growth (293s) were cultured in HL medium plus 2% FBS. The cells were transfected with the rat OFQ receptor cDNA (LC132), FEBS Lett. 347, 284-288, 1994, cloned in the expression vector pCEP4 (Invitrogen, San Diego, Calif., USA) using lipofectin (Life Technologies, Bethesda, Md., USA). Transfected cells were selected in the presence of hygromycin (1000 U/ml) (Calbiochem, San Diego, Calif., USA). A pool of resistant cells was tested for OFQ-R expression by binding of [^3 H]-OFQ (Amersham PLC, Buckinghamshire, England). These cells (293s-OFQ-R) were expanded for large scale culture and membrane preparation.
293s-OFQ-R cells were harvested by centrifugation, washed 3 times with phosphate buffered saline (PBS) before resuspension in buffer A (50 mM Tris-HCl, pH 7.8, 5 mM MgCl2, 1 mM EGTA) and disruption with a tissue homogenizer (30 seconds, setting 4, Pt 20, Kinematica, Kriens-Lucern, Switzerland). A total membrane fraction was obtained by centrifugation at 49,000×g at 4° C. This procedure was repeated twice and the pellet was resuspended in buffer A. Aliquots were stored at -70° C. and protein concentrations were determined using the BCA™ Protein Assay Reagent (Pierce, Rockford, Ill.) following the manufacturer's recommendations.
[^3 H]-OFQ competition studies were carried out with 77 μg membrane protein in a final assay volume of 0.5 ml buffer A plus 0.1% BSA and 0.01% bacitracin (Boehringer-Mannheim, Mannheim, Germany) for one hour at room temperature. 50 nM unlabeled OFQ was used to define the non-specific binding. […] The retained radioactivity was counted on a Packard Top-Count microplate scintillation counter after addition of 40 μl of Microscint 40 (Canberra Packard). The effects of compounds were determined using at least 6 concentrations in triplicate, and determined twice. IC50 values were determined by curve fitting and these calues were converted to Ki values by the method of Cheng and Prusoff, Biochem. Pharmacol., 22, 3099, 1973.

[2] = test system: OFQ-R; conditions: both in vitro and in vivo; cited from earlier work
[3] = test system: adenylate cyclase in CHO(LC 132^+) cells; conditions: CHO(LC 132+) cells in culture; cited from earlier work
[4] = test system: mice; conditions: intra-cerebroventricular; cited from earlier work
[5] = test system: mice; conditions: intra-cerebroventricular; cited from earlier work; remark: listed apart in the source

Compound	Ki [1] [µM]	agonistic activity at the OFQ-R [2]	inhibition of adenylate cyclase [3]	hyperalgesia [4]	locomotive activity [5]
c1ccc(C(OCCN2CCC3(CC2)OCc2ccccc23)c2ccccc2)cc1 [Example C, 1'-(2Benzhydryloxy-ethyl)-3H-spiro[isobenzofuran-1,4'-piperidine]hydrochloride (1:1)]	0.0126				
F-G-G-F-T-G-A-R-K-S-A-R-K-L-A-N-Q (FGGFTGARKSARKLANQ) [OFQ, seventeen amino-acid-long peptide isolated from rat brain, natural ligand for a G-protein coupled receptor (OFQ-R)]		exhibits agonistic activity	inhibits adenylate cyclase	induces hyperalgesia	slows down locomotive activity
O=C1OC2(CCN(CCNC3c4ccccc4CCc4ccccc43)CC2)c2ccccc21 [A/1, 1'-[2-(10,11-Dihydro-5H-dibenzo[a,d]cyclohepten-5-ylamino)-ethyl]-spiro[isobenzofuran-1,4'-piperidin]-3-one methansulfonate (1:2)]	0.0501				
c1ccc2c(c1)CCCCC2NCCN1CCC2(CC1)OCc1ccccc12 (stereo not shown) [B/5, [2-(3H-Spiro[isobenzofuran-1,4'-piperidin]-1'yl)-ethyl]-(5,6,7,8-tetrahydro-4H-benzocyclohepten-4-yl)-amine hydrochloride (1:2)]	0.1				
